The source of these data is ChEMBL document CHEMBL6182851, “Discovery of dual CDK4/6 and BRD4 inhibitor as apoptosis and autophagy inducers against NSCLC in vitro and in vivo” (Eur J Med Chem, 2025).

Activity calls are given as the source filed them. The rule behind the calls is not given here.

For assay [1], the system named is NCI-H460. In words: Induction of apoptosis in human NCI-H460 cells assessed as late apoptotic cells at 20 uM incubated for 48 hrs in presence of ribociclib by Annexin V-PE/7-AAD staining based flow cytometric analysis (reference value: 3.76 %). In kind it is functional. For orientation: In flow cytometry, cells or beads pass a laser one at a time.
Assay [2] concerns NCI-H460. In words: Antitumor activity against human NCI-H460 cells xenografted in female BALB/c nude mouse assessed as tumor growth inhibition at 50 mg/kg, ip administered for 21 consecutive days relative to control. The class given is functional. The settings on record: NCI-H460, 504 h, time 21 day, read-out: TGI. In general terms: In xenograft studies the graft and the host belong to different species.

The subject of assay [3] is NCI-H460. In words: Induction of autophagy in human NCI-H460 cells assessed as increase in autophagosomes at 20 uM incubated for 48 hrs by MDC staining and LC3B immunofluorescence analysis. In kind it is functional, cell-based.
Assay [4] concerns NCI-H460. In words: Induction of autophagy in human NCI-H460 cells assessed as increase in number of autophagosomes at 20 uM in presence of ribociclib incubated for 48 hrs by MDC staining and LC3B immunofluorescence analysis. The class given is functional, cell-based.
The test system of assay [5] is NCI-H1299. In words: Antitumor activity against human NCI-H1299 cells assessed as inhibition of cell viability incubated for 48 hrs in presence of ribociclib by MTT assay. The settings on record: NCI-H1299, 48 h. The class given is functional, cell-based. (In general: Formazan colour is commonly taken as a measure of viable cells.)
Assay [6] deals with NCI-H460. Kind of assay: Induction of cell cycle arrest in human NCI-H460 cells assessed as accumulation of cells at S phase at 20 uM incubated for 48 hrs by PI staining based flow cytometric analysis (reference value: 33.3 %). In kind it is functional.
The test system of assay [7] is NCI-H460. Kind of assay: Induction of cell cycle arrest in human NCI-H460 cells assessed as accumulation of cells at G1 phase at 20 uM in presence of ribociclib incubated for 48 hrs by PI staining based flow cytometric analysis (reference value: 56.7 %). In kind it is functional.
For assay [8], the system named is NCI-H460. Kind of assay: cells. The settings on record: Homo sapiens, NCI-H460, 48 h.
Description: Antitumor activity against human NCI-H460 cells assessed as inhibition of cell viability incubated for 48 hrs by MTT assay
Assay [9] relates to NCI-H460. Kind of assay: Induction of apoptosis in human NCI-H460 cells assessed as necrotic cells at 20 uM incubated for 48 hrs in presence of ribociclib by Annexin V-PE/7-AAD staining based flow cytometric analysis (reference value: 0.79 %). In kind it is functional.
For assay [10], the system named is NCI-H460. In words: Induction of cell cycle arrest in human NCI-H460 cells assessed as accumulation of cells at G1 phase at 20 uM incubated for 48 hrs by PI staining based flow cytometric analysis (reference value: 56.7 %). The class given is functional.
For assay [11], the target named is Bromodomain-containing protein 4 (Homo sapiens) (UniProt O60885). The settings on record: dose 1000.0 nM.
Description: Inhibition of BRD4 BD2 (unknown origin) assessed as inhibition ratio at 1000 nM relative to control
The subject of assay [12] is NCI-H460. In words: Induction of autophagy in human NCI-H460 cells assessed as increase in acidic vesicles at 20 uM incubated for 48 hrs by MDC staining and LC3B immunofluorescence analysis. The class given is functional, cell-based.
Assay [13] concerns NCI-H460. In words: Induction of apoptosis in human NCI-H460 cells assessed as necrotic cells at 20 uM incubated for 48 hrs by Annexin V-PE/7-AAD staining based flow cytometric analysis (reference value: 0.79 %). The class given is functional.
Assay [14] deals with NCI-H460. In words: Induction of apoptosis in human NCI-H460 cells assessed as late apoptotic cells at 20 uM incubated for 48 hrs by Annexin V-PE/7-AAD staining based flow cytometric analysis (reference value: 3.76 %). In kind it is functional.
The test system of assay [15] is A549. In words: cells. The settings on record: Homo sapiens, A549, 48 h.
Description: Antitumor activity against human A549 cells assessed as inhibition of cell viability incubated for 48 hrs by MTT assay
In assay [16] the test system is NCI-H460. In words: Induction of cell cycle arrest in human NCI-H460 cells assessed as accumulation of cells at G2 phase at 20 uM in presence of ribociclib incubated for 48 hrs by PI staining based flow cytometric analysis (reference value: 11.0 %). The class given is functional.
The test system of assay [17] is NCI-H460. Kind of assay: Induction of cell cycle arrest in human NCI-H460 cells assessed as accumulation of cells at G2 phase at 20 uM incubated for 48 hrs by PI staining based flow cytometric analysis (reference value: 11.0 %). The class given is functional.
Assay [18] relates to NCI-H460. In words: Antitumor activity against human NCI-H460 cells xenografted in female BALB/c nude mouse assessed as tumor growth inhibition at 50 mg/kg, ip administered for 21 consecutive days in presence of ribociclib relative to control. The class given is functional. Conditions: NCI-H460, 504 h, time 21 day, read-out: TGI.
In assay [19] the test system is NCI-H460. In words: Induction of apoptosis in human NCI-H460 cells assessed as early apoptotic cells at 20 uM incubated for 48 hrs by Annexin V-PE/7-AAD staining based flow cytometric analysis (reference value: 3.58 %). The class given is functional.
Assay [20] concerns NCI-H460. In words: Antitumor activity against human NCI-H460 cells assessed as inhibition of cell viability incubated for 48 hrs in presence of ribociclib by MTT assay. In kind it is functional, cell-based. Conditions: NCI-H460, 48 h.
Assay [21] deals with NCI-H460. Kind of assay: Induction of cell cycle arrest in human NCI-H460 cells assessed as accumulation of cells at S phase at 20 uM in presence of ribociclib incubated for 48 hrs by PI staining based flow cytometric analysis (reference value: 33.3 %). The class given is functional.
In assay [22] the test system is NCI-H1299. Kind of assay: cells. The settings on record: Homo sapiens, NCI-H1299, 48 h.
Description: Antitumor activity against human NCI-H1299 cells assessed as inhibition of cell viability incubated for 48 hrs by MTT assay
The subject of assay [23] is NCI-H460. Kind of assay: Induction of apoptosis in human NCI-H460 cells assessed as early apoptotic cells at 20 uM incubated for 48 hrs in presence of ribociclib by Annexin V-PE/7-AAD staining based flow cytometric analysis (reference value: 3.58 %). In kind it is functional.
The subject of assay [24] is A549. Kind of assay: Antitumor activity against human A549 cells assessed as inhibition of cell viability incubated for 48 hrs in presence of ribociclib by MTT assay. In kind it is functional, cell-based. Conditions: A549, 48 h.

What is called IC50 is the concentration that inhibits the measured activity by half. A word on the inhibition: it is the share of the control response that was lost under treatment. A higher inhibition goes with strong suppression. Take `COc1cc(OC)c2c(=O)[nH]c(-c3cc(C)c(OCCO)c(C)c3)nc2c1` [APABETALONE]: the Activity was 5.71% in assay [1]; 30.1% in [6]; 87.9% in assay [7]; 1.11% in [9]; 56% in assay [10]; 1.59% in assay [13]. In addition, the Activity in assay [14] worked out at 4.99%; in assay [16], 4.4%; in assay [17], 13%; in assay [19] it was 2.05%; in assay [21], 9.38%; in [23] it was 13.8%. Besides, the inhibition in vivo at 50 mg/kg came out at 37.5% in [2] and 72% in [18]. The outcome in assay [3], in assay [4] and in assay [12] was inactive. The IC50 in assay [5] is 8.16 µM; in assay [8] it was above 40 µM; in assay [15] it was above 40 µM; in [20] it was 10.3 µM; in [22], 18.4 µM; in assay [24] it was 18.8 µM. In assay [11], the inhibition came out at 89.8%.
